The target of experiment [1] is T1, Oxysterols receptor LXR-alpha (Homo sapiens) (UniProt Q13133).
T1 sequence (whole entry): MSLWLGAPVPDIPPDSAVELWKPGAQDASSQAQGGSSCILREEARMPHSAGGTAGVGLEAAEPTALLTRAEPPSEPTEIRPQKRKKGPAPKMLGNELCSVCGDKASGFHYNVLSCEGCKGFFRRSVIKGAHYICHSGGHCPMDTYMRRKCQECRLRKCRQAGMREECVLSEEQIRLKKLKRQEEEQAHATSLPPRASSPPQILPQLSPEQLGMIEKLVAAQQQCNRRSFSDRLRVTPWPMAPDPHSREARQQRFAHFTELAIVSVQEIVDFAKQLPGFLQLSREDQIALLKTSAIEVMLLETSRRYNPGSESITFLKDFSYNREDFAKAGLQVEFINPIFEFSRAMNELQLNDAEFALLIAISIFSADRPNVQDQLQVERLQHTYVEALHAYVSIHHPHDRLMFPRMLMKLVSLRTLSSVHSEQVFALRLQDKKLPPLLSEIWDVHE
Kind of experiment: (§1) Displacement of [3H]N-(4-(1,1,1,3,3,3-hexafluoro-2-hydroxypropan-2-yl)phenyl)-N-methylbenzenesulfonamide from LXRalpa by scintillation proximity assay.

The target of experiment [2] is Oxysterols receptor LXR-beta (Homo sapiens, UniProt P55055). As to the kind of experiment: Displacement of [3H]N-(4-(1,1,1,3,3,3-hexafluoro-2-hydroxypropan-2-yl)phenyl)-N-methylbenzenesulfonamide from LXRbeta by scintillation proximity assay.
In experiment [3] the target is T2, Oxysterols receptor LXR-alpha (Homo sapiens, UniProt Q13133).
T2 sequence (Q13133 whole entry): T1 sequence (whole entry)
The description is as §1.

Active and inactive are the calls of the source. No cut-off for these calls is given here.

Oxysterols receptor LXR-beta, sequence (P55055 whole entry): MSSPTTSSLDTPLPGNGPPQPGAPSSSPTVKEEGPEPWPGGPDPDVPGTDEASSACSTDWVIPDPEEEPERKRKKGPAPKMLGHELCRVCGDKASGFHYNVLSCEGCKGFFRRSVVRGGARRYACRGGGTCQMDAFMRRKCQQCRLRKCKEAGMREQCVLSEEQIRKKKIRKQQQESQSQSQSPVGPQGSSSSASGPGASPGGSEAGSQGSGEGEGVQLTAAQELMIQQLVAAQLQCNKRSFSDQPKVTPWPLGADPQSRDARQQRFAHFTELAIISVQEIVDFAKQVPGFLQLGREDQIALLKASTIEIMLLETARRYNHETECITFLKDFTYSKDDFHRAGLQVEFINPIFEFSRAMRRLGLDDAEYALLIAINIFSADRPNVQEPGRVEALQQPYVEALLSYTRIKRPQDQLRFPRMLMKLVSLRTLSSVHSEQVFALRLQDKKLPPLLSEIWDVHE

Take `CCCC(c1ccc(N(C)S(=O)(=O)c2ccccc2)cc1)c1cccn1CCOC` (centres undefined): the inhibition result in experiment [1] and in experiment [2] was “inactive” throughout.

`CN(c1ccc(C(O)(c2cccn2CCO)C(F)(F)F)cc1)S(=O)(=O)c1ccccc1` (centres undefined): the inhibition result in experiment [1] and in experiment [2] was “inactive” each time.

Turning to `CN(c1ccc(C(O)(c2cccn2CCCO)C(F)(F)F)cc1)S(=O)(=O)c1ccccc1` (centres undefined), the inhibition result in experiment [1] and in experiment [2] was “inactive” in each case.

Consider `CCCCn1cccc1C(O)(c1ccc(N(C)S(=O)(=O)c2ccccc2)cc1)C(F)(F)F` (centres undefined), for which the inhibition result in experiment [1] and in experiment [2] was “inactive” each time.

Regarding `CCC(c1ccc(N(C)S(=O)(=O)c2ccccc2)cc1)c1cccn1CCOC` (centres undefined), the inhibition entry in experiment [1] and in experiment [2] was “inactive” each time.

As to `CCC(C)n1cccc1C(O)(c1ccc(N(C)S(=O)(=O)c2ccccc2)cc1)C(F)(F)F` (centres undefined), the inhibition entry in experiment [1] and in experiment [2] was “inactive” throughout.

Regarding `CCn1cccc1C(O)(c1ccc(N(C)S(=O)(=O)c2ccccc2)cc1)C(F)(F)F` (centres undefined), the inhibition result in experiment [1] and in experiment [2] was “inactive” throughout.

Take `CCCCCCn1cccc1C(O)(c1ccc(N(C)S(=O)(=O)c2ccccc2)cc1)C(F)(F)F` (centres undefined): the inhibition result in experiment [1] and in experiment [2] was “inactive” each time.

Regarding `COC(c1ccc(N(C)S(=O)(=O)c2ccccc2)cc1)(c1cccn1Cc1ccccc1)C(F)(F)F` (racemic), the IC50 in experiment [3] and in experiment [2] was > 10 µM in each case.

`CCC(O)(c1ccc(N(C)S(=O)(=O)c2ccccc2)cc1)c1cccn1CCOC` (centres undefined): the inhibition entry in experiment [1] and in experiment [2] was “inactive” each time.

In the case of `CCCn1cccc1C(O)(c1ccc(N(C)S(=O)(=O)c2ccccc2)cc1)C(F)(F)F` (centres undefined), the inhibition entry in experiment [1] and in experiment [2] was “inactive” throughout.

On to `CCOC(c1ccc(N(C)S(=O)(=O)c2ccccc2)cc1)c1cccn1CCOC` (centres undefined), for which the inhibition result in experiment [1] and in experiment [2] was “inactive” in each case.

Regarding `COCCn1cccc1C(O)c1ccc(N(C)S(=O)(=O)c2ccccc2)cc1` (centres undefined), the inhibition entry in experiment [1] and in experiment [2] was “inactive” throughout.

As to `CN(c1ccc(C(O)(c2ccc[nH]2)C(F)(F)F)cc1)S(=O)(=O)c1ccccc1` (centres undefined), the inhibition result in experiment [1] and in experiment [2] was “inactive” in each case.

For `COCCn1cccc1C(C)c1ccc(N(C)S(=O)(=O)c2ccccc2)cc1` (centres undefined), the inhibition result in experiment [1] and in experiment [2] was “inactive” throughout.

On to `COCCn1cccc1C(=O)c1ccc(N(C)S(=O)(=O)c2ccccc2)cc1`, for which the inhibition entry in experiment [1] and in experiment [2] was “inactive” throughout.

In the case of `CCCC(O)(c1ccc(N(C)S(=O)(=O)c2ccccc2)cc1)c1cccn1CCOC` (centres undefined), the inhibition entry in experiment [1] and in experiment [2] was “inactive” throughout.

Turning to `COCCn1cccc1Cc1ccc(N(C)S(=O)(=O)c2ccccc2)cc1`, the inhibition entry in experiment [1] and in experiment [2] was “inactive” each time.

In the case of `COCCn1cccc1C(OC)c1ccc(N(C)S(=O)(=O)c2ccccc2)cc1` (centres undefined), the inhibition result in experiment [1] and in experiment [2] was “inactive” in each case.

Turning to `COCCn1cccc1C(CO)c1ccc(N(C)S(=O)(=O)c2ccccc2)cc1` (centres undefined), the inhibition entry in experiment [1] and in experiment [2] was “inactive” in each case.

Turning to `CN(c1ccc(C(O)(c2cccn2C)C(F)(F)F)cc1)S(=O)(=O)c1ccccc1` (centres undefined), the inhibition entry in experiment [1] and in experiment [2] was “inactive” in each case.

With `COCCn1cccc1C(C)(O)c1ccc(N(C)S(=O)(=O)c2ccccc2)cc1` (centres undefined), the inhibition entry in experiment [1] and in experiment [2] was “inactive” in each case.

The values above are taken from ChEMBL document CHEMBL2010763, “Discovery of a new binding mode for a series of liver X receptor agonists” (Bioorg Med Chem Lett, 2012).
